Data published in publication PMC7614683, “A small molecule PI3Kα activator for cardioprotection and neuroregeneration” (Nature, 2023).
Like-named read-outs stand apart in the source and are kept apart here.

Columns and labels:
Test in all cases: SelectScreen Z-LYTE kinase activity assay (SI Table 6)
Assay type in all cases: biochemical
[1] = target: protein kinases of the Z-LYTE panel (Homo sapiens, UniProt P49761)
Protocol: (§1) 133 protein kinases and 7 lipid kinases were counterscreened, with 1938 used at 1 μM, using the Adapta, Lantha and Z-LYTE assays (SelectScreen Kinase Profiling Service; Thermofisher – experimental details of these assays can be found here: https://www.thermofisher.com/uk/en/home/industrial/pharma-biopharma/drug-discovery-development/target-and-lead-identification-and-validation/kinasebiology/kinase-activity-assays.html. The tree represention in KinMap[59] generated courtesy of Cell Signaling Technology, Inc. (www.cellsignal.com). mTORC1 (mTOR/RAPTOR/LST8) protein complex and ATM kinase and substrates were produced as previously described[57],[60]. Screening of 1938 was conducted using SuperSep Phos-Tag 50 μmol/l 100 x 100 x 6.6 mm 17-well (192-18001/199-18011) gels. For ATM assays, 100 nM ATM was incubated for 30 min at 30°C with 5 μM GST-p53 and 1 mM ATP, in the absence or presence of 200 μM 1938 in ATM Kinase Buffer (50 mM HEPES pH 7.5, 100 mM NaCl, 10% glycerol, 2 mM […], 5 mM MgCl2). As a positive control for ATM activation, the same reaction was carried out with 100 nM ATM/5 μM GST-p53/1 mM ATP in the presence of 100 nM Mre11-Rad50-Nbs1 (MRN) complex, a known activator of ATM[61]. For mTORC1 assays, 50 nM mTORC1 complex (mTOR/LST8/RAPTOR) was incubated for 3 h at 30°C with 15 μM 4E-BP1, 10 mM MgCl2 and 250 μM ATP, in the absence or presence of 200 μM 1938. As a ‘positive’ control, a higher concentration (150 nM) of mTORC1 complex (mTOR/LST8/RAPTOR) was incubated for 3 h at 30°C with 15 μM 4E-BP1, 10 mM MgCl2 and 250 μM ATP. Kinase reactions were quenched by addition of SDS-PAGE Loading Buffer (as per manufacturer’s instructions) and freezing at -20°C before being run on the Phos-tag gels at 150 V for 90 min. Gels were then stained using InstantBlue™ Coomassie, and quantified using BioRad Image Lab Software. Kinase assays were carried out in triplicate.

[2] = target: protein kinases of the Z-LYTE panel (Homo sapiens, UniProt P17612)
Protocol: as §1

[3] = target: protein kinases of the Z-LYTE panel (Homo sapiens, UniProt P49840)
Protocol: as §1

[4] = target: protein kinases of the Z-LYTE panel (Homo sapiens, UniProt Q16620)
Protocol: as §1

[5] = target: protein kinases of the Z-LYTE panel (Homo sapiens, UniProt P51451)
Protocol: as §1

[6] = target: T1, protein kinases of the Z-LYTE panel (Homo sapiens, UniProt P52333)
T1 sequence (P52333 1-1124): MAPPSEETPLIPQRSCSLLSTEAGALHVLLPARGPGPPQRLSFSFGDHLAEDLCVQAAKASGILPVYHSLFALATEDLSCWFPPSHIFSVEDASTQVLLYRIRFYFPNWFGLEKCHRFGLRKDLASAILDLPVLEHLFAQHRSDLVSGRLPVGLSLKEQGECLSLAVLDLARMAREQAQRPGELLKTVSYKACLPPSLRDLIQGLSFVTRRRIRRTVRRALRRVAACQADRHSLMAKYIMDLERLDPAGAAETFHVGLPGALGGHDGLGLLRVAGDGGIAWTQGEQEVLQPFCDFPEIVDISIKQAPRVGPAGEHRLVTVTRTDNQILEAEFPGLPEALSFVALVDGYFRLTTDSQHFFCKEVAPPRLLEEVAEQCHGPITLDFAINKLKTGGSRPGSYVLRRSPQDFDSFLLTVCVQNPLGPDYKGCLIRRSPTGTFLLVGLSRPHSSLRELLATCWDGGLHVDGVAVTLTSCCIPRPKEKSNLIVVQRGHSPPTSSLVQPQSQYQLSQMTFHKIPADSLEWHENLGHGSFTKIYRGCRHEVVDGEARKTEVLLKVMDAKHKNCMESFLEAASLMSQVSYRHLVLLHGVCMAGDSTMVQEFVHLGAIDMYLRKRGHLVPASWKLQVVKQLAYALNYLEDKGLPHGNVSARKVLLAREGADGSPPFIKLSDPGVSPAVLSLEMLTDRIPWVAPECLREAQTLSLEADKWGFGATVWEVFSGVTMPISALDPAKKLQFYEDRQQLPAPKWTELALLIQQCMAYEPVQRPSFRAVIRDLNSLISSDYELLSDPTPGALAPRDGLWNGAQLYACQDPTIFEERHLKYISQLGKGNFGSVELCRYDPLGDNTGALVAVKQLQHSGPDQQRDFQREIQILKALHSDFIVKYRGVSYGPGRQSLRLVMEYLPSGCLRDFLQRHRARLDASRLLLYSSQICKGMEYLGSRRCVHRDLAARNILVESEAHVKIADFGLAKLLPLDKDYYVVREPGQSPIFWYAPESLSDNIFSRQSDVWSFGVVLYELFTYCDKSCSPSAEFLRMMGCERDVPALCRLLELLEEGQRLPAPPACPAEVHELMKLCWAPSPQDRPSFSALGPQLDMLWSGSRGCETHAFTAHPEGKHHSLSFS
Protocol: as §1

[7] = target: protein kinases of the Z-LYTE panel (Homo sapiens, UniProt P45983); conditions: MAPK8 (JNK1), 1000 nM, [ATP] 100 μM
Protocol: as §1

[8] = target: protein kinases of the Z-LYTE panel (Homo sapiens, UniProt P28482)
Protocol: as §1

[9] = target: protein kinases of the Z-LYTE panel (Homo sapiens, UniProt Q9P1W9)
Protocol: as §1

Chain of protein kinases of the Z-LYTE panel (Homo sapiens, UniProt P51451) (P51451 whole entry): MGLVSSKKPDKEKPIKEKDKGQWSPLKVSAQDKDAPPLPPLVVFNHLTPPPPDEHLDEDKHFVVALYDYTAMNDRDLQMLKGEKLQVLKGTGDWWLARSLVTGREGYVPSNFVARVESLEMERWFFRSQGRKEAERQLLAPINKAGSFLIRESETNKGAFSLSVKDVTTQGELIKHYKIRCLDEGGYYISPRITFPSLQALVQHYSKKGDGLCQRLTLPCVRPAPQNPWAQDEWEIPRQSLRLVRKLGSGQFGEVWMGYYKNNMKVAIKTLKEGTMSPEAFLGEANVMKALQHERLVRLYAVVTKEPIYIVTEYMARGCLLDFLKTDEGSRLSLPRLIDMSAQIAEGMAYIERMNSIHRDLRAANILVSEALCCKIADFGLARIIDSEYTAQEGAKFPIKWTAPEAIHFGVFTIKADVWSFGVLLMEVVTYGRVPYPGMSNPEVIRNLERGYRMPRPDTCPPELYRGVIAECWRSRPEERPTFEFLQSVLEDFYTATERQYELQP
Chain of protein kinases of the Z-LYTE panel (Homo sapiens, UniProt P28482) (P28482 whole entry): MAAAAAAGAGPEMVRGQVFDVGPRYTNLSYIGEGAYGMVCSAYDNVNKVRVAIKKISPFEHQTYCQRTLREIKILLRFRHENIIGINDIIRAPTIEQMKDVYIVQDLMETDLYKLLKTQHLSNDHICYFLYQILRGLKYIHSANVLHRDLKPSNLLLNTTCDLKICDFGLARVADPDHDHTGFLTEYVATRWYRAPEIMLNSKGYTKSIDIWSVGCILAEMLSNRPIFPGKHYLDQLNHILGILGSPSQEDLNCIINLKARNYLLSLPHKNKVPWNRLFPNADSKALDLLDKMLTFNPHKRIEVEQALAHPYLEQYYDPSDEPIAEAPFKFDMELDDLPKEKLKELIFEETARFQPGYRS
Chain of protein kinases of the Z-LYTE panel (Homo sapiens, UniProt P49761) (P49761 whole entry): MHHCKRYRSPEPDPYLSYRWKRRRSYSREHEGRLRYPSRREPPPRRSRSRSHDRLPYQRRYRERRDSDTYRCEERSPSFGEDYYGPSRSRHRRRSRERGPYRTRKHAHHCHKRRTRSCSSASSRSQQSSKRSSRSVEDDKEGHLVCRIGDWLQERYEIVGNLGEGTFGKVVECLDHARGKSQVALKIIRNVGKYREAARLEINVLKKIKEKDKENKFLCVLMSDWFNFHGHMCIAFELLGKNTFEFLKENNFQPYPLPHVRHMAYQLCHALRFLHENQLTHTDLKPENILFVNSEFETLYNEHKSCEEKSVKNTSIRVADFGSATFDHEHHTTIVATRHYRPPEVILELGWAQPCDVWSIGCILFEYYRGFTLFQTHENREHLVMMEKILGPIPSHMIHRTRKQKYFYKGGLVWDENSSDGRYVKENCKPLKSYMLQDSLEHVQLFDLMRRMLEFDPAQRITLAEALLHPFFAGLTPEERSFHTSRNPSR
Chain of protein kinases of the Z-LYTE panel (Homo sapiens, UniProt Q9P1W9) (Q9P1W9 whole entry): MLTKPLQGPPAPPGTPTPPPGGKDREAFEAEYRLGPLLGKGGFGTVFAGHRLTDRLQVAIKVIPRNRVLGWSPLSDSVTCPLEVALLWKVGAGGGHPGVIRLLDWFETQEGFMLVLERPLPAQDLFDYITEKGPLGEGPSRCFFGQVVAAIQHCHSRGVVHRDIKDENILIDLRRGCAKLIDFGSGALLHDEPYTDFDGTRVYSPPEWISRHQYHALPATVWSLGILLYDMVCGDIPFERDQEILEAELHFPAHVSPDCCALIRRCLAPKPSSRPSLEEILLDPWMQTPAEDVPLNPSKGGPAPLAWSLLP
Chain of protein kinases of the Z-LYTE panel (Homo sapiens, UniProt P49840) (P49840 whole entry): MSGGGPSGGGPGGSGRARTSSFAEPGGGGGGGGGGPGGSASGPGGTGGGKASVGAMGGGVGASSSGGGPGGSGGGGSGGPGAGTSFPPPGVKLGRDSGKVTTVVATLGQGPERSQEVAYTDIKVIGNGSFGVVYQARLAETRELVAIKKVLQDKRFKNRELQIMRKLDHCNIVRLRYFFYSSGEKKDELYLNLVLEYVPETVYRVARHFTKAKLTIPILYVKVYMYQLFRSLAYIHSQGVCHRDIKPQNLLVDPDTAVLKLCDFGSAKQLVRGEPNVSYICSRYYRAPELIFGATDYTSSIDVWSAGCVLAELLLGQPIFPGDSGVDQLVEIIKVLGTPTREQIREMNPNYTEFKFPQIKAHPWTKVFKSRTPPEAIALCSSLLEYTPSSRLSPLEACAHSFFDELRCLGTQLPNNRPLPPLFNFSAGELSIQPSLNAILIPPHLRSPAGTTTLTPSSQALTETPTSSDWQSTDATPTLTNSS
Chain of protein kinases of the Z-LYTE panel (Homo sapiens, UniProt P45983) (P45983 whole entry): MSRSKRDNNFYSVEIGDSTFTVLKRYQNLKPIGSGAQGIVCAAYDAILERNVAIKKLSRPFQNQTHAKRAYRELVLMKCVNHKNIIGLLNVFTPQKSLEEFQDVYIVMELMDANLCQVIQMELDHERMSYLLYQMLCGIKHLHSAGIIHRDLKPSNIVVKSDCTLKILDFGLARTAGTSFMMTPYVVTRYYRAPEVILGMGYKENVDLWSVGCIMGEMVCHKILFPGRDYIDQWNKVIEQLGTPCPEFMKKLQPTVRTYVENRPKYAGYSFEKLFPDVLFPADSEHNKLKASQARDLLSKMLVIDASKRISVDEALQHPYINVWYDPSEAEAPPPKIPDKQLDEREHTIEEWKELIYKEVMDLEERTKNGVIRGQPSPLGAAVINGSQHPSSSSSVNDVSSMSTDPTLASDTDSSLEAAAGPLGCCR
Chain of protein kinases of the Z-LYTE panel (Homo sapiens, UniProt Q16620) (Q16620 32-822): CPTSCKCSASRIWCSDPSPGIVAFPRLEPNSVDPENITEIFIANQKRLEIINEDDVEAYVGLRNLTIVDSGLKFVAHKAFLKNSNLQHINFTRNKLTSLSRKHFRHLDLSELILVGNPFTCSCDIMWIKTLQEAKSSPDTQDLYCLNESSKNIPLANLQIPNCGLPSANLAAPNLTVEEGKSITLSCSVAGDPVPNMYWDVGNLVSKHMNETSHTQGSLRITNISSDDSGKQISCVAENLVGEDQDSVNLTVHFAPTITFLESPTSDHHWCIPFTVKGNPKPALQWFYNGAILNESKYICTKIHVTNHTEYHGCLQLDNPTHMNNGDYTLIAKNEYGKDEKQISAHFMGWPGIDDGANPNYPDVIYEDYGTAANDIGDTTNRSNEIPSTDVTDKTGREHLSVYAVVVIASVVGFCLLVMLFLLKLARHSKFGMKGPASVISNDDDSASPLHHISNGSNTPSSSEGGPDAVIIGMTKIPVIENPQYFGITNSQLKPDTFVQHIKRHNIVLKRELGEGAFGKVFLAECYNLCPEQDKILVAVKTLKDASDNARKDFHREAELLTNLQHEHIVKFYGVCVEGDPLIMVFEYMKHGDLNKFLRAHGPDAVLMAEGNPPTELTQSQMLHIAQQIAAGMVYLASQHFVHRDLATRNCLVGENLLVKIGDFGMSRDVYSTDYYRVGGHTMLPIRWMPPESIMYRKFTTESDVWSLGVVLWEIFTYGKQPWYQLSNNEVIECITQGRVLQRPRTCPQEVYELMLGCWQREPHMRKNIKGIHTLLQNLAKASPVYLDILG

## CCN1CCN(c2ccc(Nc3cc(Nc4cccc5c4N(C(C)=O)CC5)ccn3)cc2)CC1 [Compound 1938]
[1]; read-out: % Inhibition Point 1
  inhibition at 1 µM: -1%
[1]; read-out: % Inhibition Point 2
  inhibition at 1 µM: 0.422%
[1]; read-out: % Inhibition mean
  inhibition at 1 µM: -0.267%
[2]; read-out: % Inhibition Point 1
  inhibition at 1 µM: 3%
[2]; read-out: % Inhibition Point 2
  inhibition at 1 µM: 5%
[2]; read-out: % Inhibition mean
  inhibition at 1 µM: 4%
[3]; read-out: % Inhibition Point 1
  inhibition at 1 µM: 0.632%
[3]; read-out: % Inhibition Point 2
  inhibition at 1 µM: 0.0257%
[3]; read-out: % Inhibition mean
  inhibition at 1 µM: 0.329%
[4]; read-out: % Inhibition Point 1
  inhibition at 1 µM: 7.5%
[4]; read-out: % Inhibition Point 2
  inhibition at 1 µM: 6%
[4]; read-out: % Inhibition mean
  inhibition at 1 µM: 6.66%
[5]; read-out: % Inhibition Point 1
  inhibition at 1 µM: 16%
[5]; read-out: % Inhibition Point 2
  inhibition at 1 µM: 6.35%
[5]; read-out: % Inhibition mean
  inhibition at 1 µM: 11%
[6]; read-out: % Inhibition Point 1
  inhibition at 1 µM: 3%
[6]; read-out: % Inhibition Point 2
  inhibition at 1 µM: 1.12%
[6]; read-out: % Inhibition mean
  inhibition at 1 µM: 2%
[7]; read-out: % Inhibition Point 1
  inhibition at 1 µM: 28%
[7]; read-out: % Inhibition Point 2
  inhibition at 1 µM: 32%
[7]; read-out: % Inhibition mean
  inhibition at 1 µM: 30%
[8]; read-out: % Inhibition Point 1
  inhibition at 1 µM: -0.368%
[8]; read-out: % Inhibition Point 2
  inhibition at 1 µM: 13%
[8]; read-out: % Inhibition mean
  inhibition at 1 µM: 6.48%
[9]; read-out: % Inhibition Point 1
  inhibition at 1 µM: 2%
[9]; read-out: % Inhibition Point 2
  inhibition at 1 µM: 0.0719%
[9]; read-out: % Inhibition mean
  inhibition at 1 µM: 1%
